Indel % data for two substances are collected here from patent US12171813B2, “Methods of and compositions for reducing gene expression and/or activity” (Christiana Care Gene Editing Institute, Inc., priority 2021, dated 2024).

Series [1] relates to EGFR gene. As to the kind of experiment: Screening of SureKill guide RNAs in the EGFR gene for ability to induce indels. The conditions noted are these: transfections of individual guide RNAs (spCas9 RNP); PDMR human lung adenocarcinoma cells with EGFR L858R; DECODR. Type of series: cell-based. How it is done: (§1) Human lung squamous cell carcinoma NCI-H1703 clone 44-25 cells were derived from NCI-H1703 cells (#CRL-5889) which were purchased from ATCC (Manassas, VA, USA). NCI-H1703 clone 44-25 cells contains R34G mutation (C 4 G) in NFE2L2 gene. H1703 clone 44-25 cells were cultured in ATCC formulation RPMI-1640 with 10% FBS. T75 flasks were used and cells were split 1:5 upon reaching 90% confluency. Human lung adenocarcinoma cells (Dist. Lot. No. LG0703-F948-PDC) were acquired from the National Institute of Health's National Cancer Institute's Patient-Derived Models Repository (PDMR). This PDMR cell line contains the L858R mutation (T 4 G) in the EGFR gene. The PDMR cells were maintained in Advanced DMEM/F12 media containing 10% FBS, 0.4 μg/mL hydrocortisone, 0.01 μg/mL EGF Recombinant Human Protein, 24 μg/mL adenine, and 2 mM L-Glutamine. T75s were used and cells were split 1:3 upon reaching 90% confluency. All cultures were maintained in cell culture incubators at 37° C. and 5% CO2.
(§2) Ribonucleoproteins (RNP) are complexed by incubating 250 pmol of purified synthetic gRNA (Synthego Corporation, Redwood City, CA) with 50 pmol of purified spCas9 (Synthego Corporation, Redwood City, CA) at room temperature in nuclease-free 1× TE buffer for 15 minutes.
(§3) Transfections were carried out using the Lonza Nuclefector 4d. Cultures in t75s at 90% confluence were split 1:2 24 hours prior to transfection. RNPs were complexed at 250:50 pmol for 30 minutes prior to transfection, during which time cells were harvested and counted. All reactions were 100 μL and contained 1 e6 cells. Lonza SF solution and Nucleofector program CM-130 were used in all transfections of the H1703 cell line. Lonza SE solution and Nucleofector program CA-137 were used in all transfections of the PDMR. After transfection, 500 μL of media that had been equilibrated to cell culture CO2 and temperature conditions was added to each 100 μL cuvettes. Cuvettes were then placed in the incubator. After 20 minutes, the entire content of each cuvette was seeded into 3 mL of media in a 6 well plate. After 72 hours, samples were dissociated using 200 μL Trypsin 0.25% for 5 minutes. 800 μL culture media was used to quench and split into 1.5 mL tubes each containing 500 μL of the sample. Tubes were spun at 300×g for 5 minutes. One of the tubes was placed in the −20° C. freezer and the other was resuspended in 500 μL of Trizol for RNA extraction and cDNA synthesis.
(§4) All sequencing was performed on the Applied Biosystems SeqStudio. The BigDye Terminator v3.1 Cycle Sequencing Kit was used to prepare samples for sequencing. Resulting sequences were analyzed with DECODR to determine indel rates (Bloh et al., CRISPR J. 4:120-31 (2021)).
Human EGFR is a frequently mutated gene that is associated with cancers. One of the most common mutations is L858R which results in the creation of a novel PAM site, making it a targetable sequence by CRISPR. Like the R34G mutation, the CRISPR designed to target the L858R mutation is not highly efficient on its own. By combining the L858R-targeting CRISPR with another CRISPR of high efficiency in a downstream intronic region, exon skipping can be induced, resulting in a higher efficiency of functional knockout than the L858R targeting CRISPR alone. To find a suitable gRNA to pair with the L858R targeting CRISPR, we selected the intron between exons 21 and 22 (FIG. 6). A series of gRNAs were created in this region and screened for their ability to induce indels, a measure of their activity using DECODR (Bloh et al., CRISPR J. 4:120-31 (2021)) (Table 3).
In Table 3, all sequences are listed from 5′ to 3′. Indel percent, a measure of CRISPR activity, is based on transfections of individual guide RNAs. All guide RNAs, with the exception of L858R, were designed in the intron between exons 21 and 22.

Series [2] relates to NFE2L2 gene. The experiment in a line: Screening of SureKill guide RNAs in the NFE2L2 gene for ability to induce indels. The class given is cell-based, Human. The settings on record: transfections of individual guide RNAs (spCas9 RNP); NCI-H1703 clone 44-25 cells; DECODR. The method, then:
as §1, §2, §3, §4
In some cancers, human NRF2 contains a mutation, R34G, that creates a novel PAM site making it a targetable sequence by CRISPR. By combining the R34G-targeting CRISPR with another CRISPR of high efficiency in a downstream intronic region, exon skipping can be induced, resulting in a higher efficiency of functional knockout than the R34G targeting CRISPR alone. To find a suitable SureKill guide RNA (gRNA) to pair with the R34G targeting CRISPR, we selected the intron between exons 3 and 4 (FIG. 2). A series of gRNAs were created in this region and screened for their ability to induce indels, a measure of their activity (Table 2).
In Table 2, all sequences are listed from 5′ to 3′. Indel %, a measure of CRISPR activity, is based on transfections of individual guide RNAs. All guide RNAs, with the exception of R34G, were designed in the intron between exons 3 and 4.

“L858R gRNA: guide RNA TCAAGATCACAGATTTTGGG, SEQ ID NO:8, targets EGFR L858R mutation (listed as DNA, chemistry not given here)” showed an indel % in series [1] of 73.2%. On to “R34G gRNA: guide RNA GATATAGATCTTGGAGTAAG, SEQ ID NO:1, targets NRF2 R34G mutation (listed as DNA, chemistry not given here)”, for which, in series [2], the indel % is 83%.
